According to patent US20060200330A1, “Methods and systems for modeling and simulating biochemical pathways” (KOREA INSTITUTE OF SCIENCE AND TECHNOLOGY, priority 2005, published 2006):

How the values were obtained:
ERK = experiment: Western blot of ERK activation (anti-diphosphorylated ERK) in PC12 cells; format: cell-based; details: PC12 cells, PD09859 10 μM or U0126 0.01-10 μM, 100 ng/ml EGF or NGF for 5 min
Procedure: (§1) In order to confirm the simulation, PC12 cells treated with EGF (100 ng/ml) were used to measure the time data tracking the activation levels of MEK and ERK, respectively. […] Western blot analysis was performed as follows. PC12 cells were treated with 100 ng/ml EGF for 0 to 120 min. Dissolved protein samples were reacted by using anti-phosphorylated MEK antibodies and anti-diphosphorylated ERK antibodies. Then, the resultant was reacted with anti-HRP (horse radish peroxidase)-conjugated secondary antibodies and confirmed the presence of a band via ECL chemoluminscence.
(§2) PC12 cells treated with EGF or nerve growth factor (NGF) were examined to evaluate the efficacies of PD09859 (10 μM) and U0126 (0.01-10 μM) in respect of MEK and ERK activation. Western blot analysis was performed as follows. PC12 cells treated with PD09859 and U0126 were treated with 100 ng/ml of EGF or NGF for 5 min. Then, the resulting protein sample was separated by performing SDS/PAGE, and then blotted by using anti-phosphorylated MEK and anti-diphosphoryated ERK antibodies. Again, the resultant was blotted by using anti-HRP (horseradish peroxidase) conjugated secondary antibodies and identified in bands by ECL chemo-luminescence.

MEK = experiment: Western blot of MEK activation (anti-phosphorylated MEK) in PC12 cells; format: cell-based; details: PC12 cells, U0126 0.01-10 μM, 100 ng/ml EGF or NGF for 5 min
Procedure: as §1, §2

MAPK pathway = details: cited from earlier work; for effect on ERK activation, as reported: literature report

Compound | ERK activation / intracellular ERK phosphorylation (ERK) | MEK activation (MEK) | inhibition of MAPK pathway compared with the other inhibitor (MAPK pathway; U0126 versus PD09859, literature report) | effect on ERK activation, as reported (MAPK pathway)
N#CC(=C(/N)Sc1ccccc1N)/C(C#N)=C(\N)Sc1ccccc1N [U0126] | suppressed by the MEK activity dose-dependently | not suppressed | more effective and specific | suppress ERK activation
COc1cccc(-c2cc(=O)c3ccccc3o2)c1N [PD98059] | not suppressed | – | – | suppress ERK activation
